Assays:
Format in all cases: functional
RPMI-8226 = assay: Anticancer activity against Homo sapiens (human) RPMI8226 cells after 48 hr by SRB assay; conditions: RPMI-8226, 48 h; for CC50: read-out: LC50 (the source's name)
NCI-H226 = assay: Anticancer activity against Homo sapiens (human) NCI-H226 cells after 48 hr by SRB assay; conditions: NCI-H226, 48 h
HOP-92 = assay: Anticancer activity against Homo sapiens (human) HOP92 cells after 48 hr by SRB assay; conditions: HOP-92, 48 h; for CC50: read-out: LC50 (the source's name)
SR = assay: Anticancer activity against Homo sapiens (human) SR cells after 48 hr by SRB assay; conditions: for CC50: read-out: LC50 (the source's name)
SF-268 = assay: Anticancer activity against Homo sapiens (human) SF268 cells after 48 hr by SRB assay; conditions: SF-268, 48 h
SK-MEL-28 = assay: Anticancer activity against Homo sapiens (human) SK-MEL-28 cells after 48 hr by SRB assay; conditions: SK-MEL-28, 48 h
HT-29 = assay: Anticancer activity against Homo sapiens (human) HT-29 cells after 48 hr by SRB assay; conditions: HT-29, 48 h
HCC 2998 = assay: Anticancer activity against Homo sapiens (human) HCC2998 cells after 48 hr by SRB assay; conditions: HCC 2998, 48 h
MCF7 = assay: Anticancer activity against Homo sapiens (human) MCF7 cells after 48 hr by SRB assay; conditions: MCF7, 48 h; for CC50: read-out: LC50 (the source's name)
SF-295 = assay: Anticancer activity against Homo sapiens (human) SF295 cells after 48 hr by SRB assay; conditions: SF-295, 48 h
RXF 393 = assay: Anticancer activity against Homo sapiens (human) RXF393 cells after 48 hr by SRB assay; conditions: RXF 393, 48 h
PC-3 = assay: Anticancer activity against Homo sapiens (human) PC3 cells after 48 hr by SRB assay; conditions: PC-3, 48 h
CCRF-CEM = assay: Anticancer activity against Homo sapiens (human) CCRF-CEM cells after 48 hr by SRB assay

## COc1ccc(Nn2c(SCC(=O)Nc3nc(-c4ccc(Cl)cc4)cs3)nc(C)c2C)cc1
RPMI-8226
  GI50: 5.8 µM
  TGI: > 100 µM
  CC50: > 100 µM
NCI-H226
  GI50: 3.26 µM
  LC50: > 100 µM
  TGI: > 100 µM
HOP-92
  GI50: 2.42 µM
  TGI: 7.8 µM
  CC50: > 100 µM
SR
  GI50: 7.02 µM
  TGI: > 100 µM
  CC50: > 100 µM
SF-268
  GI50: 2.81 µM
  LC50: > 100 µM
  TGI: > 100 µM
SK-MEL-28
  GI50: 18 µM
  LC50: > 100 µM
  TGI: > 100 µM
HT-29
  GI50: 4.61 µM
  LC50: > 100 µM
  TGI: 50.4 µM
HCC 2998
  GI50: 3.07 µM
  LC50: > 100 µM
  TGI: 9.91 µM
MCF7
  GI50: 3.36 µM
  TGI: 25.5 µM
  CC50: > 100 µM
SF-295
  GI50: 2.18 µM
  LC50: > 100 µM
  TGI: > 100 µM
RXF 393
  GI50: 3.53 µM
  LC50 (50% lethal concentration): > 100 µM
  TGI: 9.64 µM
PC-3
  GI50: 2.65 µM
  LC50 (concentration killing 50% of cells): > 100 µM
  TGI: > 100 µM
CCRF-CEM
  GI50: 3.82 µM
  LC50 (concentration killing 50% of cells): > 100 µM
  TGI: > 100 µM

## Cc1ccc(Nn2c(SCC(=O)Nc3nc(-c4ccccc4)cs3)nc(C)c2C)cc1
SF-268
  GI50: 9.1 µM
  LC50: > 100 µM
  TGI: > 100 µM
HT-29
  GI50: 4.37 µM
  LC50: > 100 µM
  TGI: 28.2 µM
SF-295
  GI50: 1.06 µM
  LC50: > 100 µM
  TGI: 5.89 µM

## Cc1nc(SCC(=O)Nc2nc(-c3ccc(Cl)cc3)cs2)n(Nc2ccccc2)c1C
RPMI-8226
  GI50: 3.55 µM
  TGI: > 100 µM
  CC50: > 100 µM
NCI-H226
  GI50: 3.37 µM
  LC50: 93.9 µM
  TGI: 18.8 µM
HOP-92
  GI50: 1.61 µM
  TGI: 6.89 µM
  CC50: 38.9 µM
SR
  GI50: 3.81 µM
  TGI: > 100 µM
  CC50: > 100 µM
SF-268
  GI50: 4.8 µM
  LC50: 58.8 µM
  TGI: 20.1 µM
SK-MEL-28
  GI50: 10.1 µM
  LC50: 59.7 µM
  TGI: 24.6 µM
HT-29
  GI50: 3.78 µM
  LC50: 49.5 µM
  TGI: 15.4 µM
HCC 2998
  GI50: 10.6 µM
  LC50: 82.6 µM
  TGI: 29.5 µM
MCF7
  GI50: 2.94 µM
  TGI: 11.4 µM
  CC50: 52.2 µM
SF-295
  GI50: 2.29 µM
  LC50: > 100 µM
  TGI: 16.5 µM
RXF 393
  GI50: 2.97 µM
  LC50 (50% lethal concentration): 26.8 µM
  TGI: 7.33 µM
PC-3
  GI50: 2.34 µM
  LC50 (concentration killing 50% of cells): 38.4 µM
  TGI: 11 µM
CCRF-CEM
  GI50: 5.49 µM
  LC50 (concentration killing 50% of cells): > 100 µM
  TGI: > 100 µM
